Assay results: patent US20100267561A1, “HERBICIDAL PYRIDAZINONE DERIVATIVES” (priority 2007, published 2010)

Legend:
Format in all cases: in vivo
corn (Zea mays) = experiment: Test A pre-/postemergence plant response
Outline: (§1)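 Seeds sown in loam–sand blend; test chemicals in non-phytotoxic solvent with surfactant applied preemergence as directed soil spray and, concurrently, postemergence to plants 2–10 cm tall at one- to two-leaf stage. Greenhouse ~10 days, then visual injury rating vs untreated controls on 0–100 scale (0 = no effect, 100 = complete control).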

[1] = tested on: giant foxtail (Setaria faberi); experiment: Test A pre-/postemergence plant response
Outline: as §1

[2] = tested on: eastern black (E.B.) nightshade (Solanum ptycanthum); experiment: Test B pre-/postemergence plant response; conditions: Preemergence; for Nightshade, E. B. plant response rating: 8 g ai/ha
Description: (§2) Seeds of plant species selected from blackgrass (Alopecurus myosuroides), downy bromegrass (Bromus tectorum), green foxtail (Setaria viridis), Italian ryegrass (Lolium multiflorum), wheat (Triticum aestivum), wild oat (Avena fatua), catchweed bedstraw (Galium aparine), bermudagrass (Cynodon dactylon), surinam grass (Brachiaria decumbens), cocklebur (Xanthium strumarium), corn (Zea mays), large crabgrass (Digitaria sanguinalis), woolly cupgrass (Eriochloa villosa), giant foxtail (Setaria faberii), goosegrass (Eleusine indica), johnsongrass (Sorghum halepense), kochia (Kochia scoparia), lambsquarters (Chenopodium album), morningglory (Ipomoea coccinea), eastern black (E.B.) nightshade (Solanum ptycanthum), yellow nutsedge (Cyperus esculentus), pigweed (Amaranthus retroflexus), common ragweed (Ambrosia elation), Russian thistle (Salsola iberica), soybean (Glycine max), common (oilseed) sunflower (Helianthus annuus), and velvetleaf (Abutilon theophrasti) were planted and treated preemergence with test chemicals formulated in a non-phytotoxic solvent mixture which included a surfactant.
(§3) At the same time, plants selected from these crop and weed species and also winter barley (Hordeum vulgare), canarygrass (Phalaris minor), chickweed (Stellaria media) and windgrass (Apera spica-venti) were treated with postemergence applications of some of the test chemicals formulated in the same manner. Plants ranged in height from 2 to 18 cm (1- to 4-leaf stage) for postemergence treatments.
(§4) Plant species in the flooded paddy test consisted of rice (Oryza sativa), umbrella sedge (Cyperus difformis), ducksalad (Heteranthera limosa) and barnyardgrass (Echinochloa crus-galli) grown to the 2-leaf stage for testing. At time of treatment, test pots were flooded to 3 cm above the soil surface, treated by application of test compounds directly to the paddy water, and then maintained at that water depth for the duration of the test. Treated plants and controls were maintained in a greenhouse for 13 to 15 days, after which time all species were compared to controls and visually evaluated. Plant response ratings, summarized in Table B, are based on a scale of 0 to 100 where 0 is no effect and 100 is complete control. A dash (-) response means no test result.

[3] = tested on: yellow nutsedge (Cyperus esculentus); experiment: Test B pre-/postemergence plant response; conditions: Preemergence; for Nutsedge, Yellow plant response rating: 8 g ai/ha
Description: as §2, §3, §4

[4] = tested on: velvetleaf (Abutilon theophrasti); experiment: Test B pre-/postemergence plant response; conditions: Preemergence; for Velvetleaf plant response rating: 8 g ai/ha, scale 0 to 100
Description: as §2, §3, §4

[5] = tested on: common (oilseed) sunflower (Helianthus annuus); experiment: Test B pre-/postemergence plant response; conditions: Preemergence; for Sunflower plant response rating: 8 g ai/ha
Description: as §2, §3, §4

soybean (Glycine max) = experiment: Test B pre-/postemergence plant response; conditions: Preemergence; for Soybean plant response rating: 8 g ai/ha
Description: as §2, §3, §4

[6] = tested on: bermudagrass (Cynodon dactylon); experiment: Test B pre-/postemergence plant response; conditions: Preemergence; for Bermudagrass plant response rating: 8 g ai/ha
Description: as §2, §3, §4

[7] = tested on: Italian ryegrass (Lolium multiflorum); experiment: Test B pre-/postemergence plant response; conditions: Preemergence; for Ryegrass, Italian plant response rating: 8 g ai/ha
Description: as §2, §3, §4

[8] = tested on: wheat (Triticum aestivum); experiment: Test B pre-/postemergence plant response; conditions: Preemergence; for Wheat plant response rating: 8 g ai/ha, scale 0 to 100
Description: as §2, §3, §4

[9] = tested on: johnsongrass (Sorghum halepense); experiment: Test B pre-/postemergence plant response; conditions: Preemergence; for Johnsongrass plant response rating: 8 g ai/ha
Description: as §2, §3, §4

[10] = Postemergence, 31 g ai/ha, 0 to 100 scale, 0 no effect, 100 complete control
[11] = Postemergence, 125 g ai/ha, 0 to 100 scale, 0 no effect, 100 complete control
[12] = Preemergence, 31 g ai/ha, 0 to 100 scale, 0 is no effect, 100 is complete control
[13] = Preemergence, 125 g ai/ha, 0 to 100 scale (0 no effect, 100 complete control)
[14] = 16 g ai/ha, scale 0 to 100 (0 no effect, 100 complete control)
[15] = 31 g ai/ha, scale 0 to 100 (0 no effect, 100 complete control)
[16] = 62 g ai/ha, 0 to 100 scale, 0 no effect, 100 complete control
[17] = scale 0 to 100 (0 no effect, 100 complete control)
[18] = 31 g ai/ha, 0 to 100 scale, 0 no effect, 100 complete control

For `Cc1cc(-c2ccc(Cl)cc2)nn1-c1c(OS(=O)(=O)c2cccc3ccccc23)cnn(C)c1=O` [Compound 47], the “Plant response rating, Corn” value (corn (Zea mays); [10]) was 0, the “Plant response rating, Corn” value (corn (Zea mays); [11]) was 10 and the “Plant response rating, Corn” value (corn (Zea mays); [12]) was 0. The “Plant response rating, Corn” value (corn (Zea mays); [13]) was 40, the “Plant response rating, Foxtail, Giant” value [1, 10] was 10 and the “Plant response rating, Foxtail, Giant” value [1, 11] was 60. For the same compound, the “Plant response rating, Foxtail, Giant” value [1, 12] was 70, the “Plant response rating, Foxtail, Giant” value [1, 13] was 90 and the “Plant response rating, Nightshade, E. B.” value [2, 14] was 0. The “Plant response rating, Nightshade, E. B.” value [2, 15] was 0, the “Plant response rating, Nightshade, E. B.” value ([2]; 62 g ai/ha, scale 0 to 100) was 0 and the “Nightshade, E. B. plant response rating” value ([2]; scale 0 to 100) was 0. For the same compound, the “Plant response rating, Nutsedge, Yellow” value [3, 14] was 0, the “Plant response rating, Nutsedge, Yellow” value [3, 15] was 0 and the “Plant response rating, Nutsedge, Yellow” value ([3]; 62 g ai/ha, scale 0 to 100) was 0. For the same compound, the “Nutsedge, Yellow plant response rating” value ([3]; scale 0 to 100) was 0, the “Plant response rating, Velvetleaf” value [4, 14] was 0 and the “Plant response rating, Velvetleaf” value [4, 15] was 0. For the same compound, the “Plant response rating, Velvetleaf” value [4, 16] was 0, the “Velvetleaf plant response rating” value [4] was 0 and the “Plant response rating, Sunflower” value [5, 14] was 0. The “Plant response rating, Sunflower” value [5, 15] was 0, the “Plant response rating, Sunflower” value ([5]; 62 g ai/ha, scale 0 to 100) was 0 and the “Sunflower plant response rating” value ([5]; scale 0 to 100) was 0. The “Plant response rating, Soybean” value (soybean (Glycine max); [14]) was 0, the “Plant response rating, Soybean” value (soybean (Glycine max); [15]) was 0 and the “Plant response rating, Soybean” value (soybean (Glycine max); 62 g ai/ha, scale 0 to 100) was 0. For the same compound, the “Soybean plant response rating” value (soybean (Glycine max); scale 0 to 100) was 0, the “Bermudagrass plant response rating” value [6, 17] was 60 and the “Plant response rating, Bermudagrass” value [6, 14] was 100. The “Plant response rating, Bermudagrass” value [6, 18] was 100, the “Plant response rating, Bermudagrass” value ([6]; 62 g ai/ha, scale 0 to 100) was 100 and the “Plant response rating, Ryegrass, Italian” value [7, 14] was 80. For the same compound, the “Plant response rating, Ryegrass, Italian” value [7, 15] was 90, the “Plant response rating, Ryegrass, Italian” value ([7]; 62 g ai/ha, scale 0 to 100) was 98 and the “Ryegrass, Italian plant response rating” value ([7]; scale 0 to 100) was 0. The “Plant response rating, Wheat” value [8, 14] was 0, the “Plant response rating, Wheat” value [8, 15] was 0 and the “Plant response rating, Wheat” value [8, 16] was 20. For the same compound, the “Wheat plant response rating” value [8] was 0, the “Plant response rating, Johnsongrass” value [9, 14] was 75 and the “Plant response rating, Johnsongrass” value [9, 18] was 85. The “Plant response rating, Johnsongrass” value ([9]; 62 g ai/ha, scale 0 to 100) was 95 and the “Johnsongrass plant response rating” value ([9]; scale 0 to 100) was 0.

With `Cc1cc(-c2ccc(Cl)cc2)nn1-c1c(OS(=O)(=O)C(C)C)cnn(C)c1=O` [Compound 50] the “Plant response rating, Corn” value (corn (Zea mays); [10]) was 0, the “Plant response rating, Corn” value (corn (Zea mays); [11]) was 30 and the “Plant response rating, Corn” value (corn (Zea mays); [12]) was 0. The “Plant response rating, Corn” value (corn (Zea mays); [13]) was 20, the “Plant response rating, Foxtail, Giant” value [1, 10] was 0 and the “Plant response rating, Foxtail, Giant” value [1, 11] was 60. For the same compound, the “Plant response rating, Foxtail, Giant” value [1, 12] was 70, the “Plant response rating, Foxtail, Giant” value [1, 13] was 90 and the “Plant response rating, Nightshade, E. B.” value [2, 14] was 0. For the same compound, the “Plant response rating, Nightshade, E. B.” value [2, 15] was 100, the “Plant response rating, Nightshade, E. B.” value ([2]; 62 g ai/ha, scale 0 to 100) was 100 and the “Nightshade, E. B. plant response rating” value ([2]; scale 0 to 100) was 0. The “Plant response rating, Nutsedge, Yellow” value [3, 14] was 0, the “Plant response rating, Nutsedge, Yellow” value [3, 15] was 0 and the “Plant response rating, Nutsedge, Yellow” value ([3]; 62 g ai/ha, scale 0 to 100) was 0. For the same compound, the “Nutsedge, Yellow plant response rating” value ([3]; scale 0 to 100) was 0, the “Plant response rating, Velvetleaf” value [4, 14] was 0 and the “Plant response rating, Velvetleaf” value [4, 15] was 0. For the same compound, the “Plant response rating, Velvetleaf” value [4, 16] was 0, the “Velvetleaf plant response rating” value [4] was 0 and the “Plant response rating, Sunflower” value [5, 14] was 0. For the same compound, the “Plant response rating, Sunflower” value [5, 15] was 0, the “Plant response rating, Sunflower” value ([5]; 62 g ai/ha, scale 0 to 100) was 20 and the “Sunflower plant response rating” value ([5]; scale 0 to 100) was 0. For the same compound, the “Plant response rating, Soybean” value (soybean (Glycine max); [14]) was 50, the “Plant response rating, Soybean” value (soybean (Glycine max); [15]) was 100 and the “Plant response rating, Soybean” value (soybean (Glycine max); 62 g ai/ha, scale 0 to 100) was 100. The “Soybean plant response rating” value (soybean (Glycine max); scale 0 to 100) was 0, the “Bermudagrass plant response rating” value [6, 17] was 90 and the “Plant response rating, Bermudagrass” value [6, 14] was 100. The “Plant response rating, Bermudagrass” value [6, 18] was 100, the “Plant response rating, Bermudagrass” value ([6]; 62 g ai/ha, scale 0 to 100) was 100 and the “Plant response rating, Ryegrass, Italian” value [7, 14] was 0. The “Plant response rating, Ryegrass, Italian” value [7, 15] was 5, the “Plant response rating, Ryegrass, Italian” value ([7]; 62 g ai/ha, scale 0 to 100) was 100 and the “Ryegrass, Italian plant response rating” value ([7]; scale 0 to 100) was 0. The “Plant response rating, Wheat” value [8, 14] was 0, the “Plant response rating, Wheat” value [8, 15] was 0 and the “Plant response rating, Wheat” value [8, 16] was 0. For the same compound, the “Wheat plant response rating” value [8] was 0, the “Plant response rating, Johnsongrass” value [9, 14] was 95 and the “Plant response rating, Johnsongrass” value [9, 18] was 98. For the same compound, the “Plant response rating, Johnsongrass” value ([9]; 62 g ai/ha, scale 0 to 100) was 100 and the “Johnsongrass plant response rating” value ([9]; scale 0 to 100) was 70.
